For 29 compounds, IC50 and Activity results are on record in ChEMBL document CHEMBL5376003, “Structure-Activity Relationship of FL118 Platform Position 7 Versus Position 9-Derived Compounds and Their Mechanism of Action and Antitumor Activity” (J Med Chem, 2023).

Assay [1] concerns HCT-116. Put plainly: Growth inhibition of human HCT-116 cells incubated for 48 hrs by MTT reagent based ELISA reader analysis. It counts as functional, cell-based. Conditions: HCT-116, 48 h. On the technique in general: Tetrazolium dyes change colour on reduction, which living cells bring about.
The next assay concerns HeLa. The experiment in a line: Growth inhibition of human HeLa cells incubated for 48 hrs by MTT reagent based ELISA reader analysis. It counts as functional, cell-based.
The next assay deals with HepG2. The experiment in a line: Growth inhibition of human HepG2 cells incubated for 48 hrs by MTT reagent based ELISA reader analysis. It counts as functional, cell-based. Conditions: HepG2, 48 h.
The next assay deals with A549. Put plainly: Growth inhibition of human A549 cells incubated for 48 hrs by MTT reagent based ELISA reader analysis. The class given is functional, cell-based. Particulars: A549, 48 h.
The test system of a further assay is MCF7. Put plainly: Growth inhibition of human MCF7 cells incubated for 48 hrs by MTT reagent based ELISA reader analysis. It counts as functional, cell-based. Conditions: MCF7, 48 h.
Assay [2] concerns HCT-116. The experiment in a line: Induction of apoptosis in human HCT-116 cells assessed as increase in intracellular ROS level incubated for 48 hrs by DCFH-DA staining based fluorescence microscopy. The class given is functional, cell-based.
Assay [3] has as its system PDX27454. Put plainly: Antitumor activity against human PDX27454 cells xenografted in SCID mouse model assessed as reduction in tumor volume at 8 mg/kg,po administrated once per week for 3 weeks. It counts as functional, organism-based.
Assay [4] relates to PDX14244. The experiment in a line: Antitumor activity against human PDX14244 cells xenografted in SCID mouse model assessed as reduction in tumor volume at 2 mg/kg,po administrated once per week for 3 weeks. It counts as functional, organism-based. For orientation: In xenograft studies the graft and the host belong to different species.
The subject of assay [5] is PDX14244. The experiment in a line: Antitumor activity against human PDX14244 cells xenografted in SCID mouse model assessed as reduction in tumor volume at 8 mg/kg,po administrated once per week for 3 weeks. The class given is functional, organism-based.
Assay [6] deals with PDX27454. The experiment in a line: Antitumor activity against human PDX27454 cells xenografted in SCID mouse model assessed as reduction in tumor volume at 2 mg/kg,po administrated once per week for 3 weeks. The class given is functional, organism-based.

For orientation: IC50 means the concentration that gives 50% inhibition. Low values mean greater potency in that assay, high ones weaker potency in that assay.

Calls of active or inactive are those of the source. The calls are words filed in the database; no cut-off is given here.

`CCSc1ccc(-c2c3c(nc4cc5c(cc24)OCO5)-c2cc4c(c(=O)n2C3)COC(=O)[C@]4(O)CC)cc1`: the IC50 with HCT-116 [1] came out at 91.3 nM; in the assay with HeLa it was 95.8 nM; in the assay with HepG2, 300 nM; in the assay with A549, 29.1 nM; in the assay on MCF7, 72.5 nM.

With `CC[C@@]1(O)C(=O)OCc2c1cc1n(c2=O)Cc2cc3c(-c4ccc5c(c4)OCO5)c4c(cc3nc2-1)OCO4`, the IC50 came out at 59.2 nM with HCT-116 [1]; 32.5 nM in the assay on HeLa; 350 nM with HepG2; 111 nM in the assay with A549; 32.6 nM in the assay on MCF7.

As to `CCOc1cccc(-c2c3c(cc4nc5c(cc24)Cn2c-5cc4c(c2=O)COC(=O)[C@]4(O)CC)OCO3)c1`, the IC50 in the assay with HCT-116 [1] was 256 nM; with HeLa, above 1000 nM; with HepG2, 199 nM; in the assay on A549 it was 111 nM; in the assay on MCF7, 156 nM.

Turning to `CC[C@@]1(O)C(=O)OCc2c1cc1n(c2=O)Cc2cc3c(-c4ccc(C(C)(C)C)cc4)c4c(cc3nc2-1)OCO4`, the IC50 in the assay on HCT-116 [1] was above 1000 nM; with HeLa, 674 nM; with HepG2, above 1000 nM; in the assay on A549, 910 nM; with MCF7, above 1000 nM.

In the case of `CC[C@@]1(O)C(=O)OCc2c1cc1n(c2=O)Cc2cc3c(-c4ccc(C(F)(F)F)cc4)c4c(cc3nc2-1)OCO4`, the half-maximal inhibitory concentration (IC50) with HCT-116 [1] is 934 nM; in the assay on HeLa, above 1000 nM; with HepG2, above 1000 nM; in the assay on A549, 803 nM. In addition, the Activity entry with HCT-116 [2] was “Dose-Dependent Effect”.

Turning to `CCCCOc1ccc(-c2c3c(cc4nc5c(cc24)Cn2c-5cc4c(c2=O)COC(=O)[C@]4(O)CC)OCO3)cc1`, the 50% inhibitory concentration (IC50) with HCT-116 [1] stood at 782 nM; in the assay on HeLa, 593 nM; with HepG2 it was 569 nM; in the assay on A549, 616 nM; in the assay on MCF7 it was 344 nM.

For `CCCc1ccc(-c2c3c(nc4cc5c(cc24)OCO5)-c2cc4c(c(=O)n2C3)COC(=O)[C@]4(O)CC)cc1`, the IC50 in the assay with HCT-116 [1] turned out to be 118 nM; in the assay with HeLa, 59.4 nM; in the assay on HepG2 it was 827 nM; in the assay on A549 it was 51 nM; in the assay with MCF7 it was 64 nM.

For the compound `CC[C@@]1(O)C(=O)OCc2c1cc1n(c2=O)Cc2c-1nc1cc3c(cc1c2-c1ccc(C(C)C)cc1)OCO3`, the IC50 with HCT-116 [1] was 400 nM; in the assay with HeLa, 61.4 nM; in the assay with HepG2, 825 nM; in the assay with A549, 52 nM; with MCF7, 122 nM.

For `CC[C@@]1(O)C(=O)OCc2c1cc1n(c2=O)Cc2c-1nc1cc3c(cc1c2-c1ccc(OC(C)C)cc1)OCO3`, the IC50 in the assay on HCT-116 [1] was below 6.4 nM; with HeLa, 506 nM; in the assay with HepG2, 160 nM; in the assay with A549, 142 nM; in the assay on MCF7, 52.8 nM.

For `CC[C@@]1(O)C(=O)OCc2c1cc1n(c2=O)Cc2cc3c(-c4ccc(C(C)C)cc4)c4c(cc3nc2-1)OCO4`, the IC50 is above 1000 nM in the assay on HCT-116 [1]; above 1000 nM in the assay on HeLa; above 1000 nM in the assay with HepG2; 765 nM in the assay with A549; 800 nM in the assay with MCF7.

For the compound `CC[C@@]1(O)C(=O)OCc2c1cc1n(c2=O)Cc2cc3c(-c4ccc(SC)cc4)c4c(cc3nc2-1)OCO4`, the IC50 worked out at 582 nM in the assay with HCT-116 [1]; 161 nM in the assay on HeLa; 303 nM in the assay with HepG2; 220 nM with A549; 158 nM in the assay on MCF7.

As for `CCOc1cccc(-c2c3c(nc4cc5c(cc24)OCO5)-c2cc4c(c(=O)n2C3)COC(=O)[C@]4(O)CC)c1`, the IC50 came to 55.9 nM with HCT-116 [1]; 52.2 nM in the assay with HeLa; 280 nM with HepG2; 29.4 nM with A549; 47.8 nM in the assay with MCF7.

On to `CC[C@@]1(O)C(=O)OCc2c1cc1n(c2=O)Cc2cc3c(-c4ccc(OC)cc4)c4c(cc3nc2-1)OCO4`, for which the half-maximal inhibitory concentration (IC50) is 162 nM with HCT-116 [1]; above 1000 nM with HeLa; 527 nM with HepG2; 163 nM in the assay with A549; 161 nM in the assay on MCF7.

With `CC[C@@]1(O)C(=O)OCc2c1cc1n(c2=O)Cc2c-1nc1cc3c(cc1c2-c1ccc(C)c(C)c1)OCO3`, the IC50 amounted to 22.3 nM in the assay on HCT-116 [1]; 364 nM in the assay on HeLa; 64 nM with HepG2; 22.1 nM in the assay on A549; 45.3 nM in the assay with MCF7.

With `CC[C@@]1(O)C(=O)OCc2c1cc1n(c2=O)Cc2c-1nc1cc3c(cc1c2-c1cc(C)cc(C)c1)OCO3`, the IC50 in the assay on HCT-116 [1] amounted to 64 nM; with HeLa it was 33.6 nM; in the assay on HepG2 it was 45.4 nM; with A549, 36 nM; with MCF7, 86.8 nM.

In the case of `CC[C@@]1(O)C(=O)OCc2c1cc1n(c2=O)Cc2cc3c(-c4cc(OC)cc(OC)c4)c4c(cc3nc2-1)OCO4`, the IC50 with HCT-116 [1] stood at 22.3 nM; with HeLa, 32.8 nM; in the assay with HepG2, 28.1 nM; in the assay on A549, 434 nM; in the assay on MCF7, 29.7 nM.

For `CC[C@@]1(O)C(=O)OCc2c1cc1n(c2=O)Cc2cc3c(-c4cccc(C)c4)c4c(cc3nc2-1)OCO4`, the IC50 is 478 nM in the assay on HCT-116 [1]; 32.6 nM in the assay on HeLa; 200 nM with HepG2; above 1000 nM with A549; 132 nM with MCF7. Further, the result in the assay on PDX27454 [3], with PDX14244 [4], in the assay with PDX14244 [5] and with PDX27454 [6] was Active.

Turning to `CC[C@@]1(O)C(=O)OCc2c1cc1n(c2=O)Cc2cc3c(-c4cccc(OC(C)C)c4)c4c(cc3nc2-1)OCO4`, the IC50 with HCT-116 [1] turned out to be 183 nM; in the assay with HeLa, 161 nM; in the assay on HepG2 it was 161 nM; in the assay on A549, 149 nM; in the assay with MCF7 it was 149 nM.

In the case of `CC[C@@]1(O)C(=O)OCc2c1cc1n(c2=O)Cc2c-1nc1cc3c(cc1c2-c1ccc(C(C)(C)C)cc1)OCO3`, the IC50 in the assay on HCT-116 [1] is 83.2 nM; in the assay on HeLa it was above 1000 nM; in the assay on HepG2 it was 140 nM; in the assay with A549, 64 nM; in the assay with MCF7 it was 160 nM.

As for `CC[C@@]1(O)C(=O)OCc2c1cc1n(c2=O)Cc2cc3c(-c4cccc(SC)c4)c4c(cc3nc2-1)OCO4`, the IC50 in the assay on HCT-116 [1] was 134 nM; in the assay on HeLa, 32.3 nM; with HepG2 it was 190 nM; in the assay with A549 it was 133 nM; with MCF7 it was 98.5 nM.

For `CCCc1ccc(-c2c3c(cc4nc5c(cc24)Cn2c-5cc4c(c2=O)COC(=O)[C@]4(O)CC)OCO3)cc1`, the IC50 with HCT-116 [1] is 951 nM; in the assay on HeLa, above 1000 nM; in the assay with HepG2, above 1000 nM; in the assay with A549, 423 nM; in the assay with MCF7, above 1000 nM.

In the case of `CCSc1ccc(-c2c3c(cc4nc5c(cc24)Cn2c-5cc4c(c2=O)COC(=O)[C@]4(O)CC)OCO3)cc1`, the IC50 in the assay on HCT-116 [1] was 620 nM; in the assay with HeLa it was above 1000 nM; in the assay on HepG2, 401 nM; in the assay on A549, 211 nM; in the assay on MCF7, above 1000 nM.

As for `CC[C@@]1(O)C(=O)OCc2c1cc1n(c2=O)Cc2c-1nc1cc3c(cc1c2-c1cccc(C)c1)OCO3`, the IC50 with HCT-116 [1] worked out at 21.8 nM; with HeLa it was 144 nM; in the assay on HepG2, 134 nM; in the assay with A549 it was 115 nM; with MCF7, 38.6 nM.

Take `CCOc1ccc(-c2c3c(cc4nc5c(cc24)Cn2c-5cc4c(c2=O)COC(=O)[C@]4(O)CC)OCO3)cc1`: the IC50 with HCT-116 [1] was 176 nM; with HeLa, above 1000 nM; with HepG2 it was above 1000 nM; in the assay on A549 it was 296 nM; in the assay on MCF7 it was above 1000 nM.

On to `CCc1ccc(-c2c3c(cc4nc5c(cc24)Cn2c-5cc4c(c2=O)COC(=O)[C@]4(O)CC)OCO3)cc1`, for which the IC50 in the assay on HCT-116 [1] was 697 nM; with HeLa it was above 1000 nM; in the assay on HepG2, above 1000 nM; with A549, 265 nM; in the assay with MCF7, above 1000 nM.

As for `CCCCc1ccc(-c2c3c(nc4cc5c(cc24)OCO5)-c2cc4c(c(=O)n2C3)COC(=O)[C@]4(O)CC)cc1`, the half-inhibitory concentration (IC50) is 513 nM with HCT-116 [1]; 115 nM in the assay with HeLa; above 1000 nM with HepG2; 54.9 nM in the assay with A549; 60.5 nM in the assay with MCF7.

With `CC[C@@]1(O)C(=O)OCc2c1cc1n(c2=O)Cc2c-1nc1cc3c(cc1c2-c1ccc([Si](C)(C)C)cc1)OCO3`, the IC50 with HCT-116 [1] was 56.3 nM; in the assay with HeLa it was above 1000 nM; with HepG2, 74 nM; with A549, 321 nM; in the assay with MCF7, 863 nM.

`CCCOc1ccc(-c2c3c(nc4cc5c(cc24)OCO5)-c2cc4c(c(=O)n2C3)COC(=O)[C@]4(O)CC)cc1`: the 50% inhibitory concentration (IC50) in the assay with HCT-116 [1] was 562 nM; with HeLa, above 1000 nM; in the assay with HepG2, 993 nM; in the assay with A549, 225 nM; in the assay with MCF7 it was 53 nM.

On to `CCCCc1ccc(-c2c3c(cc4nc5c(cc24)Cn2c-5cc4c(c2=O)COC(=O)[C@]4(O)CC)OCO3)cc1`, for which the IC50 in the assay on HCT-116 [1] was 759 nM; in the assay with HeLa, above 1000 nM; with HepG2, above 1000 nM; in the assay with A549, 541 nM; in the assay with MCF7, above 1000 nM.
